From publication PMC4102924 (Science translational medicine, 2013) come the findings set out here.

Each structure is given as a SMILES string.

For the experiment, the target named is PDK2 (pyruvate dehydrogenase kinase 2) (Homo sapiens, UniProt Q15119). The experiment is described as follows: radiometric kinase assay with recombinant PDK2. In kind it is biochemical.

Turning to `O=C(O)CCCc1ccccc1` [phenylbutyrate], the Ki is 330 ± 80 µM.

By Ki is commonly meant a measure of affinity in units of concentration, obtained from inhibition or displacement.
